Test results: patent publication US20240075050A1, “Methods and Compositions for Treating Leucine Rich Repeat Kinase 2 (LRRK2)-Associated Disorder or Condition” (University of Connecticut, priority 2022, published 2024)

Key:
LRRK2 [1] = experiment: Endogenous LRRK2 levels in SH-SY5Y cells, Western blot; assay type: cell-based, human
LRRK2 [2] = experiment: LRRK2 levels in human fibroblasts, Western blot; assay type: cell-based; conditions: 1 mM, 48 hours
Method: FIGS. 2A-2T depicts that AICAr, the precursor of ATIC substrate, regulates LRRK2 expression levels and neuronal toxicity. FIGS. 2A and 2B depict the overexpressed LRRK2 levels in HEK 293T cells upon AICAr treatment. HEK293 cells were transfected with MYC-LRRK2 and treated with or without 1 mM AICAr for 48 hours. LRRK2 levels were analyzed by Western blot. FIGS. 2C and 2D depict the LRRK2 expression levels in SH-SY5Y cells upon AICAr treatment. Human neuroblastoma SH-SY5Y cells were treated with or without 1 mM AICAr for 48 hours. LRRK2 expression levels were analyzed by Western blot. FIGS. 2E and 2F depict the overexpressed (3-glucocerebrosidase (GCase) levels upon AICAr treatment. HEK 293T cells were transfected with V5-GCase and treated with or without 1 mM AICAr for 48 hours. GCase levels were analyzed by Western blot. FIGS. 2G-2N depict the LRRK2 expression levels in primary neurons (FIG. 2G and FIG. 2H), microglia (FIG. 2I and FIG. 2J), astrocytes (FIG. 2K and FIG. 2L) and human fibroblasts (FIG. 2M and FIG. 2N) upon AICAr treatment. Mouse primary cortical neurons, microglia, astrocytes or human fibroblasts from a health control were treated with or without 1 mM AICAr for 48 hours. LRRK2 expression levels were analyzed by Western blot. […] LRRK2 expression levels were analyzed by Western blot. […] Images were quantified by ImageJ software. […]

LRRK2 [3] = experiment: LRRK2 levels in mouse striatal tissue after intracranial AICAr via osmotic pumps, Western blot; assay type: in vivo
Method: Saline injections were performed as controls.
(§1) Stereotaxic intracranial injection. Three days before survival surgery, osmotic pumps (ALZET, 1004) were filled with saline, 1 mg/ml or 30 mg/ml AICAr in saline, assembled with brain infusion kits (ALZET, Brain Infusion Kit 2), and incubated in saline at 37° C. 3-month-old mice were anesthetized by isoflurane gas supplemented with 0.5 L/min oxygen. A ˜1.5 cm incision was made midline on the scalp. For mouse striatum injection, one hole was drilled at the following coordinates: anterioposterior=+0.5 mm from bregma; lateral=−2.0 mm from bregma; dorsoventral=−3.5 mm. For mouse substantia nigra pars compacta (SNpc) injection, one hole was drilled at the following coordinates: anterioposterior=−3.2 mm from bregma; lateral=−1.2 mm from bregma; dorsoventral=−4.2 mm. 1 ul LPS (5 ug) or PBS was injected at a rate of 0.2 ul/min using a Hamilton syringe with a 26-gauge blunt needle. After injection, the needle was in place for 5 minutes to minimize backflow. A subcutaneous pocket was made on the animal's back to hold the osmotic pump. The 28-gauge needle from infusion cannulae connected to the osmotic pump with a vinyl catheter tube was inserted into the same hole and then the cannulae was secured to the skull with Loctite 454 (ALZET). The wound was closed with monofilament suture. […]

[4] = test system: DA neurons in substantia nigra pars compacta; experiment: LPS-induced DA neurodegeneration in mice, TH-positive neurons in SNpc; assay type: in vivo, mouse; conditions: 21 days
Method: as §1, with “needle.” for “needle. After injection, the needle was in place for 5 minutes to minimize backflow. A subcutaneous pocket was made on the animal's back to hold the osmotic pump. The 28-gauge needle from infusion cannulae connected to the osmotic pump with a vinyl catheter tube was inserted into the same hole and then the cannulae was secured to the skull with Loctite 454 (ALZET). The wound was closed with monofilament suture.”
Immunohistochemistry. […] After antigen retrieval with 10 mM sodium citrate (pH 6.0) and 0.05% Tween-20 at 37° C. for 30 minutes, brain sections were washed in PBS for three times, permeabilized with 0.3% Triton X-100 in PBS, blocked with 10% goat serum in PBS, incubated with anti-tyrosine hydroxylase (TH) antibody overnight at 4° C., and then detected with Biotin-SP goat anti-rabbit IgG antibody at room temperature for 2 hours. […]
Stereological cell counting. […] Total cells were counted from 8 serial sections per animal.

Compound: NC(=O)c1ncn([C@@H]2O[C@H](CO)[C@@H](O)[C@H]2O)c1N [AICAr, 5-aminoimidazole-4-carboxamide riboside]
- LRRK2 level, time and dose course (LRRK2 [1]; 1 mM, 24h-48h treatment): suppressed LRRK2 level dramatically
- LRRK2 protein levels in AUF1-KO cells (LRRK2 [1]; SH-SY5Y AUF1-KO cells, 1 mM, 48 hours): largely attenuated effects
- AICAr effects on LRRK2 in AUF1 KO cells with stable AUF1-GFP expression (LRRK2 [1]; SH-SY5Y AUF1 KO, AUF1-GFP expressed back, 1 mM, 48 hours): significantly rescued AICAr effects
- effects on LRRK2 protein levels in WT versus AMPK KO cell line (LRRK2 [1]; SH-SY5Y WT and AMPK KO, 1 mM, 48 hours): similar
- endogenous LRRK2 levels (LRRK2 [1]; SH-SY5Y cells, 1 mM, 48 hours): decreased
- LRRK2 protein levels despite MG132 or CQ (LRRK2 [1]; SH-SY5Y, 1 mM AICAr with 0.35 μM MG132 or 5 μM CQ, 48 hours): still largely reduced
- LRRK2 levels in fibroblasts (LRRK2 [2]): significantly decrease
- LRRK2 levels in striatal tissues (LRRK2 [3]; WT mice, LPS model, AICAr 2.4 μg/day/animal into striatum, 21 days, Western blot): significant decrease
- LRRK2 levels in striatal tissue near the injection sites (LRRK2 [3]; male and female mice, striatum, osmotic minipumps, 72 ug/animal/day, 1 day after injection): dramatically decreased
- LPS-induced neurodegeneration ([4]; LRRK2 KO mice, AICAr 2.4 μg/day/animal into SNpc): did not significantly rescue
- LPS-induced DA neurodegeneration ([4]; WT mice, AICAr 2.4 μg/day/animal into SNpc by osmotic pumps): significantly reduced
